pIC50: −log10 of the molar value.
Tests used:
[1] = test system: A375P F11s tumor cells; test: Cell growth inhibition assay (CellTiter-Glo), A375P F11s; assay type: cell-based, Human; conditions: Homo sapiens
In short: (§1)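 Cells seeded at 500/well (HN5 and HT-29 in high-glucose DMEM/10% FBS; A375P F11s in RPMI/10% FBS with pyruvate; SK-MEL-3 in McCoy's 5A/15% FBS), then exposed next day to 1:3 serial compound dilutions (0.2% DMSO) for 3 days at 37° C. CellTiter-Glo luminescence measured ATP; IC50 derived by 4-parameter fit.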

[2] = test system: HT-29 tumor cells; test: Cell growth inhibition assay (CellTiter-Glo), HT-29; assay type: cell-based, Human; conditions: Homo sapiens
In short: as §1

[3] = test system: SK-MEL-28 tumor cells; test: Cell growth inhibition assay (CellTiter-Glo), SK-MEL-28; assay type: cell-based, Human; conditions: Homo sapiens, SK-MEL-28, 72 h; 3 days incubation
In short: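 Readout was CellTiter-Glo luminescence (total ATP, surrogate for cell number) after 3-day exposure at 37° C, 5% CO2 to 1:3 serial compound dilutions in 0.2% final DMSO. Seeding was 500 cells/well; IC50 derived by 4-parameter fit relative to vehicle-treated wells.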

[4] = test system: BT474 tumor cells; test: Cell growth inhibition assay (CellTiter-Glo), BT474; assay type: cell-based, Human; conditions: Homo sapiens, BT-474, 72 h, 3 days incubation
[5] = test system: SK-MEL-3 tumor cells; test: Cell growth inhibition assay (CellTiter-Glo), SK-MEL-3; assay type: cell-based, Human; conditions: Homo sapiens, SK-MEL3
In short: as §1

[6] = test system: HN5 tumor cells; test: Cell growth inhibition assay (CellTiter-Glo), HN5; assay type: cell-based, Human; conditions: Homo sapiens, 72 h; 3 days incubation
In short: as §1

[7] = biological target: B-Raf (Homo sapiens, UniProt P15056); test: B-Raf Accelerated MEK ATPase assay (BRAMA), Method A or B; assay type: biochemical
B-Raf, sequence (P15056 whole entry): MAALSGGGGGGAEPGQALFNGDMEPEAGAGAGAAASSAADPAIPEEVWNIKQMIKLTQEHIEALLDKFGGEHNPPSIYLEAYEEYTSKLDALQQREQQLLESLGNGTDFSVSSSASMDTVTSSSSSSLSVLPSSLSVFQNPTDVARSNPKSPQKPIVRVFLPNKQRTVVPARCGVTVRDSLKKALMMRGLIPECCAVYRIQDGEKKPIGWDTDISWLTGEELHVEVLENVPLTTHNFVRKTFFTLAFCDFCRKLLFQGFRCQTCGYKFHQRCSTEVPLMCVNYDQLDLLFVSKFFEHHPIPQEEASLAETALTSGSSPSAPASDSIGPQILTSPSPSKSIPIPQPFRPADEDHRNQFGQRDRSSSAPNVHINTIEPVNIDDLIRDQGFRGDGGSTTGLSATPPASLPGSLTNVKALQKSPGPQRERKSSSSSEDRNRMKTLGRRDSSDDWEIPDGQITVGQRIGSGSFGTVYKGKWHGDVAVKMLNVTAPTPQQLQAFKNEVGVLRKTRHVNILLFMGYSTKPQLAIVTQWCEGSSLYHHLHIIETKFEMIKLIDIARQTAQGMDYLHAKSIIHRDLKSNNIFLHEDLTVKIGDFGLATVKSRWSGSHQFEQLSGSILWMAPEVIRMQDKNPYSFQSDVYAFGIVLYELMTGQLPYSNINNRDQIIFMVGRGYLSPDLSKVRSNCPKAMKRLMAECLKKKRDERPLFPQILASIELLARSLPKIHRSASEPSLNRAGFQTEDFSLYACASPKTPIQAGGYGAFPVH
In short: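 ADP production, initiated by catalytic activated Raf with unphosphorylated MEK, is followed by NADH oxidation through a PK/LDH coupled system. Method B differs from the kinetic Method A by a single end-point read and 150 nM final MEK.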

[8] = Method B: final MEK 150 nM, single end point read

SMILES | pIC50 [1] | pIC50 [2] | pIC50 [3] | pIC50 [4] | pIC50 [5] | pIC50 [6] | pIC50 [7, 8] | pIC50 ([7]; Method A)
CCc1nc(-c2cccc(NS(=O)(=O)c3ccccc3)c2)c(-c2ccnc(Nc3ccc(N4CCN(C(C)=O)CC4)nc3)n2)s1 [Example 3, N-{3-[5-(2-{[6-(4-Acetyl-1-piperazinyl)-3-pyridinyl]amino}-4-pyrimidinyl)-2-ethyl-1,3-thiazol-4-yl]phenyl}benzenesulfonamide] | > 7.00 | 6.00 to 7.00 | > 7.00 | < 6.00 | > 7.00 | < 6.00 | > 7.00 | –
CCc1nc(-c2cccc(NS(=O)(=O)c3ccccc3)c2)c(-c2ccnc(Nc3ccc(N4CCOCC4)c(F)c3)n2)s1 [Example 4] | 6.00 to 7.00 | 6.00 to 7.00 | 6.00 to 7.00 | < 6.00 | 6.00 to 7.00 | 6.00 to 7.00 | – | 6.00 to 7.00
CCc1nc(-c2cccc(NS(=O)(=O)c3ccccc3)c2)c(-c2ccnc(Nc3ccc(OC)c(N4CCN(CCS(C)(=O)=O)CC4)c3)n2)s1 [Example 5, N-[3-(2-Ethyl-5-{2-[(4-(methyloxy)-3-{4-[2-(methylsulfonyl)ethyl]-1-piperazinyl}phenyl)amino]-4-pyrimidinyl}-1,3-thiazol-4-yl)phenyl]benzenesulfonamide] | > 7.00 | > 7.00 | > 7.00 | 6.00 to 7.00 | > 7.00 | 6.00 to 7.00 | – | > 7.00
CC(=O)N1CCc2cc(Nc3nccc(-c4sc(C(C)C)nc4-c4cccc(NS(=O)(=O)c5ccccc5)c4)n3)ccc21 [Example 71] | > 7.00 | > 7.00 | > 7.00 | < 6.00 | > 7.00 | 6.00 to 7.00 | > 7.00 | –
CC(C)c1nc(-c2cccc(NS(=O)(=O)c3ccccc3)c2)c(-c2ccnc(Nc3ccc(CC4CCN(CCS(C)(=O)=O)CC4)c(F)c3)n2)s1 [Example 72] | 6.00 to 7.00 | 6.00 to 7.00 | 6.00 to 7.00 | < 6.00 | > 7.00 | 6.00 to 7.00 | > 7.00 | –
CC(C)c1nc(-c2cccc(NS(=O)(=O)c3ccccc3)c2)c(-c2ccnc(Nc3ccc(F)c(N4CCN(CCS(C)(=O)=O)CC4)c3)n2)s1 [Example 73] | > 7.00 | 6.00 to 7.00 | > 7.00 | < 6.00 | > 7.00 | 6.00 to 7.00 | > 7.00 | –
CC(C)c1nc(-c2cccc(NS(=O)(=O)c3ccccc3)c2)c(-c2ccnc(Nc3ccc(N4CCN(CCS(C)(=O)=O)CC4)c(F)c3F)n2)s1 [Example 74] | 6.00 to 7.00 | < 6.00 | 6.00 to 7.00 | < 6.00 | 6.00 to 7.00 | < 6.00 | > 7.00 | –
CC(C)c1nc(-c2cccc(NS(=O)(=O)c3c(F)cccc3F)c2)c(-c2ccnc(Nc3ccc(N4CCN(C(C)C)CC4)cc3O)n2)s1 [Example 78] | > 7.00 | < 6.00 | > 7.00 | < 6.00 | > 7.00 | < 6.00 | > 7.00 | –
COc1cc(N2CCN(CCF)CC2)ccc1Nc1nccc(-c2sc(C(C)C)nc2-c2cccc(NS(=O)(=O)c3c(F)cccc3F)c2)n1 [Example 79] | 6.00 to 7.00 | 6.00 to 7.00 | 6.00 to 7.00 | < 6.00 | 6.00 to 7.00 | < 6.00 | > 7.00 | –
CC(C)c1nc(-c2cccc(NS(=O)(=O)c3c(F)cccc3F)c2)c(-c2ccnc(Nc3ccc(N4CCN(CCO)CC4)nc3)n2)s1 [Example 80] | > 7.00 | 6.00 to 7.00 | > 7.00 | < 6.00 | > 7.00 | 6.00 to 7.00 | > 7.00 | –
CC(C)c1nc(-c2cccc(NS(=O)(=O)c3c(F)cccc3F)c2)c(-c2ccnc(Nc3cccc(N4CCN(C)CC4)c3)n2)s1 [Example 81] | > 7.00 | 6.00 to 7.00 | > 7.00 | < 6.00 | > 7.00 | 6.00 to 7.00 | > 7.00 | –
CC(C)c1nc(-c2cccc(NS(=O)(=O)c3c(F)cccc3F)c2)c(-c2ccnc(Nc3ccc(N4CCCNCC4)nc3)n2)s1 [Example 82] | > 7.00 | 6.00 to 7.00 | > 7.00 | < 6.00 | > 7.00 | 6.00 to 7.00 | > 7.00 | –
CC(C)c1nc(-c2cc(F)cc(NS(=O)(=O)c3ccc(F)cc3)c2)c(-c2ccnc(Nc3ccc(N4CCOCC4)c(F)c3)n2)s1 [Example 83] | 6.00 to 7.00 | < 6.00 | 6.00 to 7.00 | < 6.00 | 6.00 to 7.00 | 6.00 to 7.00 | > 7.00 | –
CC(C)c1nc(-c2cc(F)cc(NS(=O)(=O)c3c(F)cccc3F)c2)c(-c2ccnc(Nc3ccc(N4CCOCC4)nc3)n2)s1 [Example 84] | > 7.00 | > 7.00 | > 7.00 | < 6.00 | > 7.00 | 6.00 to 7.00 | > 7.00 | –
CC(C)c1nc(-c2cc(F)cc(NS(=O)(=O)c3c(F)cccc3F)c2)c(-c2ccnc(Nc3ccc(N4CCOCC4)c(F)c3)n2)s1 [Example 85] | > 7.00 | 6.00 to 7.00 | > 7.00 | – | > 7.00 | 6.00 to 7.00 | > 7.00 | –
CC(C)c1nc(-c2cccc(NS(=O)(=O)c3c(F)cccc3F)c2)c(-c2ccnc(Nc3cc(F)c(N4CCN(CCS(C)(=O)=O)CC4)cc3F)n2)s1 [Example 87] | > 7.00 | 6.00 to 7.00 | > 7.00 | < 6.00 | > 7.00 | < 6.00 | > 7.00 | –
CC(C)c1nc(-c2cccc(NS(=O)(=O)c3c(F)cccc3F)c2)c(-c2ccnc(Nc3ccc(N4CCCN(CCS(C)(=O)=O)CC4)nc3)n2)s1 [Example 88] | > 7.00 | > 7.00 | > 7.00 | < 6.00 | > 7.00 | 6.00 to 7.00 | > 7.00 | –
CC(C)c1nc(-c2cccc(NS(=O)(=O)c3c(F)cccc3F)c2)c(-c2ccnc(Nc3ccc(N4CC[C@@H](O)C4)nc3)n2)s1 [Example 89] | > 7.00 | < 6.00 | > 7.00 | < 6.00 | > 7.00 | 6.00 to 7.00 | > 7.00 | –
Cc1cc(N2CCC(N3CCCCC3)CC2)ccc1Nc1nccc(-c2sc(C(C)C)nc2-c2cccc(NS(=O)(=O)c3c(F)cccc3F)c2)n1 [Example 91] | 6.00 to 7.00 | < 6.00 | > 7.00 | < 6.00 | 6.00 to 7.00 | < 6.00 | > 7.00 | –
CC(C)c1nc(-c2cccc(NS(=O)(=O)c3ccccc3)c2)c(-c2ccnc(Nc3ccc(N4CCOCC4)cn3)n2)s1 [Example 92] | 6.00 to 7.00 | < 6.00 | 6.00 to 7.00 | < 6.00 | 6.00 to 7.00 | 6.00 to 7.00 | > 7.00 | –
C=C(C)c1nc(-c2cccc(NS(=O)(=O)c3c(F)cccc3F)c2)c(-c2ccnc(Nc3ccc(N4CCN(CCF)CC4)c(F)c3)n2)s1 [Example 93] | 6.00 to 7.00 | < 6.00 | 6.00 to 7.00 | < 6.00 | 6.00 to 7.00 | < 6.00 | > 7.00 | –
CC(C)c1nc(-c2ccc(F)c(NS(=O)(=O)c3c(F)cccc3F)c2)c(-c2ccnc(Nc3ccc(N4CCN(CCS(C)(=O)=O)CC4)c(F)c3)n2)s1 [Example 95] | 6.00 to 7.00 | < 6.00 | > 7.00 | < 6.00 | 6.00 to 7.00 | 6.00 to 7.00 | > 7.00 | –
CC(=O)N1CCN(c2ccc(Nc3nccc(-c4sc(C(C)C)nc4-c4cccc(NS(=O)(=O)c5cc(F)ccc5F)c4)n3)cn2)CC1 [Example 96] | > 7.00 | > 7.00 | > 7.00 | < 6.00 | > 7.00 | 6.00 to 7.00 | > 7.00 | –

— US20110319392A1, “Thiazole Sulfonamide And Oxazole Sulfonamide Kinase Inhibitors” (priority 2009, published 2011)
